From the supplement of paper PMC11061612

Tests used:
Experiment in all cases: Bliss excess, mean over the matrix (fraction); higher = more synergy
[1] = test system: LU-165 (Small Cell Lung Carcinoma)
Procedure, shortened: (§1)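 Cell lines grown in DMEM/F12 or RPMI with 10% FBS were plated in 1536-well plates and held 24 hours at 37°C, 5% CO2 before 72 hours of exposure to two-drug dose matrices, with DMSO typically at 0.2%. CellTiter-Glo 2.0 luminescence gave viability, which was converted to inhibition. Vehicle wells were set to 0 and blank wells to 1. Combination Emax is the second-highest inhibition in the matrix, and Bliss excess is the observed combination effect minus the expected EA + EB − EA·EB, where EA and EB are the single-agent effects.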

[2] = test system: JHH-2 (Hepatocellular Carcinoma)
Procedure, shortened: as §1

HCC70 (Breast Carcinoma) = test system: HCC70 (Breast Carcinoma)
Procedure, shortened: as §1

EW-7 (Ewing's Sarcoma) = test system: EW-7 (Ewing's Sarcoma)
Procedure, shortened: as §1

769-P (Kidney Carcinoma) = test system: 769-P (Kidney Carcinoma)
Procedure, shortened: as §1

[3] = test system: NCI-H2087 (Lung Adenocarcinoma)
Procedure, shortened: as §1

[4] = test system: MHH-ES-1 (Ewing's Sarcoma)
Procedure, shortened: as §1

[5] = test system: NCI-H441 (Lung Adenocarcinoma)
Procedure, shortened: as §1

[6] = test system: NCI-H1651 (Lung Adenocarcinoma)
Procedure, shortened: as §1

IM-9 (Non-Cancerous) = test system: IM-9 (Non-Cancerous)
Procedure, shortened: as §1

[7] = test system: JHU-022 (Oral Cavity Carcinoma)
Procedure, shortened: as §1

[8] = test system: 22RV1 (Prostate Carcinoma)
Procedure, shortened: as §1

[9] = test system: CGTH-W-1 (Thyroid Gland Carcinoma)
Procedure, shortened: as §1

[10] = test system: UACC-812 (Breast Carcinoma)
Procedure, shortened: as §1

[11] = test system: HCC1395 (Breast Carcinoma)
Procedure, shortened: as §1

[12] = test system: SW620 (Colorectal Carcinoma)
Procedure, shortened: as §1

[13] = test system: KYSE-220 (Esophageal Squamous Cell Carcinoma)
Procedure, shortened: as §1

WM1552C (Melanoma) = test system: WM1552C (Melanoma)
Procedure, shortened: as §1

[14] = test system: NCI-H1703 (Squamous Cell Lung Carcinoma)
Procedure, shortened: as §1

EB2 (Burkitt's Lymphoma) = test system: EB2 (Burkitt's Lymphoma)
Procedure, shortened: as §1

| SMILES | Bliss excess [1] | Bliss excess [2] | Bliss excess (HCC70 (Breast Carcinoma)) | Bliss excess (EW-7 (Ewing's Sarcoma)) | Bliss excess (769-P (Kidney Carcinoma)) | Bliss excess [3] | Bliss excess [4] | Bliss excess [5] | Bliss excess [6] | Bliss excess (IM-9 (Non-Cancerous)) | Bliss excess [7] | Bliss excess [8] | Bliss excess [9] | Bliss excess [10] | Bliss excess [11] | Bliss excess [12] | Bliss excess [13] | Bliss excess (WM1552C (Melanoma)) | Bliss excess [14] | Bliss excess (EB2 (Burkitt's Lymphoma)) |
| --- | --- | --- | --- | --- | --- | --- | --- | --- | --- | --- | --- | --- | --- | --- | --- | --- | --- | --- | --- | --- |
| C[C@@H](c1ccc2nccn2c1)n1nnc2ncc(-c3cnn(C)c3)nc21 [Savolitinib] + CC1(C)CCC(CN2CCN(c3ccc(C(=O)NS(=O)(=O)c4ccc(NCC5CCOCC5)c([N+](=O)[O-])c4)c(Oc4cnc5[nH]ccc5c4)c3)CC2)=C(c2ccc(Cl)cc2)C1 [Venetoclax] (first compound max 1 µM, 7x7, partner max 1 µM) | -0.0126 | -0.0705 | -0.0361 | -0.0242 | -0.0419 | -0.0716 | -0.031 | -0.029 | -0.0356 | 0.0452 | -0.0621 | -0.0952 | -0.0378 | -0.043 | -0.0095 | -0.0727 | -0.0573 | -0.0623 | -0.015 | -0.0391 |
| CN(CCO)CC[C@H](CSc1ccccc1)Nc1ccc(S(=O)(=O)NC(=O)c2ccc(N3CCC([C@@H](O)c4ccccc4-c4ccc(Cl)cc4)CC3)cc2)cc1S(=O)(=O)C(F)(F)F [AZD4320] + Nc1ccn([C@@H]2O[C@H](CO)[C@@H](O)C2(F)F)c(=O)n1 [Gemcitabine] (first compound max 1 µM, 7x7, partner max 0.3 µM) | 0.0836 | -0.0302 | 0.103 | 0.0189 | -0.0672 | 0.0051 | 0.0486 | 0.0333 | 0.0198 | 0.043 | 0.0202 | -0.0286 | 0.0579 | -0.0326 | -0.0457 | -0.009 | 0.0369 | 0.0167 | -0.0482 | -0.0017 |
| CN(CCO)CC[C@H](CSc1ccccc1)Nc1ccc(S(=O)(=O)NC(=O)c2ccc(N3CCC([C@@H](O)c4ccccc4-c4ccc(Cl)cc4)CC3)cc2)cc1S(=O)(=O)C(F)(F)F [AZD4320] + Cc1cc2ncnn2cc1Nc1ncc2c(n1)n(C1CCOCC1)c(=O)n2C [AZD7648] (first compound max 1 µM, 7x7, partner max 10 µM) | 0.0018 | -0.02 | -0.01 | 0.0633 | -0.0572 | -0.0145 | -0.0097 | -0.043 | -0.0454 | 0.0473 | -0.0477 | -0.0532 | -0.0436 | -0.0342 | -0.037 | -0.0309 | -0.0165 | -0.0505 | -0.0096 | 0.007 |
| Cc1cc2ncnn2cc1Nc1ncc2c(n1)n(C1CCOCC1)c(=O)n2C [AZD7648] + CCN(CCO)CCCOc1ccc2c(Nc3cc(CC(=O)Nc4cccc(F)c4)[nH]n3)ncnc2c1 [AZD2811] (first compound max 10 µM, 7x7, partner max 1 µM) | -0.0339 | -0.0763 | -0.0203 | 0.043 | 0.0313 | -0.0209 | 0.0263 | -0.0502 | 0.0404 | -0.0432 | 0.028 | -0.022 | 0.0363 | 0.0276 | -0.0181 | 0.0357 | 0.0544 | 0.0025 | -0.0392 | 0.0607 |
| CN(CCO)CC[C@H](CSc1ccccc1)Nc1ccc(S(=O)(=O)NC(=O)c2ccc(N3CCC([C@@H](O)c4ccccc4-c4ccc(Cl)cc4)CC3)cc2)cc1S(=O)(=O)C(F)(F)F [AZD4320] + C[C@@H](Nc1cc(F)cc(F)c1)c1cc(C(=O)N(C)C)cc2c(=O)cc(N3CCOCC3)oc12 [AZD8186] (first compound max 1 µM, 7x7, partner max 3 µM) | -0.0236 | -0.0485 | 0.0803 | -0.014 | 0.0227 | -0.0271 | 0.01 | -0.0528 | -0.0074 | 0.0079 | -0.0104 | -0.0076 | 0.0304 | 0.0063 | 0.0463 | -0.0141 | -0.0227 | 0.0104 | 0.0398 | -0.0196 |
| N#Cc1cnc(Nc2cc(NC[C@H]3CNCCO3)c(C(F)(F)F)cn2)cn1 [SRA737] + Nc1ccn([C@@H]2O[C@H](CO)[C@@H](O)C2(F)F)c(=O)n1 [Gemcitabine] (first compound max 10 µM, 7x7, partner max 0.3 µM) | -0.0375 | -0.0087 |  | 0.0349 | -0.0313 | 0.0059 | 0.0613 | -0.0336 | 0.0124 | 0.0254 | 0.008 | -0.0663 | 0.0472 | -0.054 | 0.0226 | 0.058 | -0.0155 | -0.0206 | -0.012 | -0.025 |
